Laboratory results reported in patent US20230365546A1, “5-SUBSTITUTED INDOLE 3-AMIDE DERIVATIVES, PREPARATION METHOD AND USE THEREOF” (ORIGIANT PHARMACEUTICAL CO., LTD, priority 2020, published 2023).

How the values were obtained:
Test in all cases: Kinase Profiler 10 μM panel
cKit(D816V)(h) = cKit(D816V)(h) (Homo sapiens (Human), UniProt P10721, D816V)
Procedure: (§1) In vitro kinase assays were conducted using Kinase Profiler services provided by Eurofins. The experimental method was as follows: the small molecule compound to be tested (0.001-10 μM), the protein kinase to be tested were incubated with a buffer containing substrate, 10 mM magnesium acetate, and [γ-^33P-ATP], the reaction was started by adding Mg\TPmix, after incubation for a period of time at room temperature, a 3% phosphate solution was added to the buffer to stop the reaction. Subsequently, 10 μL of the reaction mixture was quantitatively pipetted onto P30 filter paper, which was washed three times with 75 mM phosphate solution and then once with methanol. The P30 filter paper was air-dried and scintillation fluid was added for scintillation counting.

Aurora-C(h) = Aurora-C(h) (Homo sapiens (Human), UniProt Q9UQB9)
Procedure: as §1

NEK4(h) = NEK4(h) (Homo sapiens (Human), UniProt P51957)
Procedure: as §1

B-Raf(h) = B-Raf(h) (Homo sapiens (Human), UniProt P15056)
Procedure: as §1

Lyn(m) = Lyn(m) (Mus musculus (Mouse), UniProt P25911)
Procedure: as §1

MSSK1(h) = MSSK1(h) (Homo sapiens (Human), UniProt Q9UPE1)
Procedure: as §1

CSRC(h) = CSRC(h) (Homo sapiens (Human), UniProt P12931)
Procedure: as §1

Axl(h) = Axl(h) (Homo sapiens (Human), UniProt P30530)
Procedure: as §1

LKB1(h) = LKB1(h) (Homo sapiens (Human), UniProt Q15831)
LKB1(h), sequence (Q15831 whole entry): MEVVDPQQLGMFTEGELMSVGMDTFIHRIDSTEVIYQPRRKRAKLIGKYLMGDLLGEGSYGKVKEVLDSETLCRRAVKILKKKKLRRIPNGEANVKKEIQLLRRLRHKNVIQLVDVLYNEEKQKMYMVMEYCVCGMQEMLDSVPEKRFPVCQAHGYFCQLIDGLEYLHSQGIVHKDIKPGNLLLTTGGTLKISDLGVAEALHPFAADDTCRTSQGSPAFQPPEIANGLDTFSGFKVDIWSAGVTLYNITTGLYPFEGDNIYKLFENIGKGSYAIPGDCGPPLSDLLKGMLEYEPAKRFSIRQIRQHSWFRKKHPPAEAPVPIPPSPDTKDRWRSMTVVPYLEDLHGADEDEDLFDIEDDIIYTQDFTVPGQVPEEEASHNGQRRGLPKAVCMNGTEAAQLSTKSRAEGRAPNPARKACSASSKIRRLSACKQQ
LKB1(h), sequence (Q7RTN6 whole entry partner): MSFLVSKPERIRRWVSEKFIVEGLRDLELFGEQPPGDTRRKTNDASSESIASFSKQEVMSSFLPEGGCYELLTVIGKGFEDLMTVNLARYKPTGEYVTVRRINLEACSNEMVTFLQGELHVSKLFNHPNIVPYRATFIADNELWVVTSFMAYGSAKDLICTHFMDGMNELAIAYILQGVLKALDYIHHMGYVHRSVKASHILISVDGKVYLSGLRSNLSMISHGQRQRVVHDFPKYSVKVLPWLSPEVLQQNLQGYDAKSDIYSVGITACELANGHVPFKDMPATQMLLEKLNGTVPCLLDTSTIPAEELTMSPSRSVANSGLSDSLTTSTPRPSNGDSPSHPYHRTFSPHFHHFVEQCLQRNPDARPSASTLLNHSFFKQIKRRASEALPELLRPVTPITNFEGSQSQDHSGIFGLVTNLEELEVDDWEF
LKB1(h), sequence (Q9Y376 whole entry partner): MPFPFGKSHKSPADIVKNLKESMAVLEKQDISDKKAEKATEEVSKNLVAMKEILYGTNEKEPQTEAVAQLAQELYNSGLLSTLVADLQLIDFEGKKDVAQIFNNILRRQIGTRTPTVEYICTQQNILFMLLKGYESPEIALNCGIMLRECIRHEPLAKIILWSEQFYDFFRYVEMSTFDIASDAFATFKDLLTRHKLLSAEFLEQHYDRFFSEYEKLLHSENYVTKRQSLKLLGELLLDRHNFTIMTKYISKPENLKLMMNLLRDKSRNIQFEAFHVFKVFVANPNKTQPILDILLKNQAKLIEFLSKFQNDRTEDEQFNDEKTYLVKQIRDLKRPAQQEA
Procedure: as §1

mTOR(h) = mTOR(h) (Homo sapiens (Human), UniProt P42345)
Procedure: as §1

DRAK2(h) = DRAK2(h) (Homo sapiens (Human), UniProt O94768)
DRAK2(h), sequence (O94768 whole entry): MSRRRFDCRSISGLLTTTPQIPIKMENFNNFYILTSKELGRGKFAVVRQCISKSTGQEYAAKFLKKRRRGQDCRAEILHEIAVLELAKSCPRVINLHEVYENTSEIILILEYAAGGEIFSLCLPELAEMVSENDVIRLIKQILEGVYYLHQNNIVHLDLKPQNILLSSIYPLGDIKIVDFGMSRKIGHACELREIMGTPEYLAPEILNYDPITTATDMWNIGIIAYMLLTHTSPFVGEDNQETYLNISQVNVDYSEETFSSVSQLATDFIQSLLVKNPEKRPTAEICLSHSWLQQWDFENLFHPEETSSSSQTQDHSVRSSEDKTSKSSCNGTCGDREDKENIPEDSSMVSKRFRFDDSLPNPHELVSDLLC
Procedure: as §1

Plk1(h) = Plk1(h) (Homo sapiens (Human), UniProt P53350)
Plk1(h), sequence (P53350 whole entry): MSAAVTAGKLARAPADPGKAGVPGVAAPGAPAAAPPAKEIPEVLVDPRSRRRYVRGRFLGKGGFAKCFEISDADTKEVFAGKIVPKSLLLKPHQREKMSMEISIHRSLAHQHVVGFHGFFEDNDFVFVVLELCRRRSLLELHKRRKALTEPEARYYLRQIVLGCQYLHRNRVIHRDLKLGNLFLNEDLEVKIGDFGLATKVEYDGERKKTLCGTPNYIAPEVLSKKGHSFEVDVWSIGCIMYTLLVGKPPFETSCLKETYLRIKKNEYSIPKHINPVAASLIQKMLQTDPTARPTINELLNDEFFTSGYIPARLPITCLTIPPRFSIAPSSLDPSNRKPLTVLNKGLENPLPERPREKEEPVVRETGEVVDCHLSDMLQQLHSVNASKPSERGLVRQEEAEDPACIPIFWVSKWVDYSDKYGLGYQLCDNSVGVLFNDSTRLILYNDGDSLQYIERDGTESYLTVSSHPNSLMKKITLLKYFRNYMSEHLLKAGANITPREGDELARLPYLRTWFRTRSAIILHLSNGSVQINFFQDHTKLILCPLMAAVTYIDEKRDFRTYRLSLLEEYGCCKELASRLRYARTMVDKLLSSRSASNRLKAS
Procedure: as §1

JNK2α2(h) = JNK2α2(h) (Homo sapiens (Human), UniProt P45984)
Procedure: as §1

CaMKIIα(h) = CaMKIIα(h) (Homo sapiens (Human), UniProt Q9UQM7)
Procedure: as §1

Arg(h) = Arg(h) (Homo sapiens (Human), UniProt P42684)
Procedure: as §1

PDHK2(h) = PDHK2(h) (Homo sapiens (Human), UniProt Q15119)
Procedure: as §1

CaMKIβ(h) = CaMKIβ(h) (Homo sapiens (Human), UniProt Q6P2M8)
Procedure: as §1

BrSK1(h) = BrSK1(h) (Homo sapiens (Human), UniProt Q8TDC3)
Procedure: as §1

NUAK2(h) = NUAK2(h) (Homo sapiens (Human), UniProt Q9H093)
Procedure: as §1

Aurora-B(h) = Aurora-B(h) (Homo sapiens (Human), UniProt Q96GD4)
Aurora-B(h), sequence (Q96GD4 whole entry): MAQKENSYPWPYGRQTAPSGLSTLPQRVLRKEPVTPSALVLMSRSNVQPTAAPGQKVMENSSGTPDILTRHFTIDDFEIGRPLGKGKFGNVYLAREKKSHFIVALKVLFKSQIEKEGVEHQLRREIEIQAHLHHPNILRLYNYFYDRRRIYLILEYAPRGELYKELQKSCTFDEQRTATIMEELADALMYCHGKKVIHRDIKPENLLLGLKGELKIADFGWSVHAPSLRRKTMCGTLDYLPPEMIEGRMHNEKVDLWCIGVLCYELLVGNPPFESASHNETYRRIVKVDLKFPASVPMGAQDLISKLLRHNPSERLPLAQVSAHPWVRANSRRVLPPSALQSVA
Procedure: as §1

CDK3/cyclinE(h) = CDK3/cyclinE(h) (Homo sapiens (Human), UniProt Q00526)
Procedure: as §1

TrkB(h) = TrkB(h) (Homo sapiens (Human), UniProt Q16620)
TrkB(h), sequence (Q16620 32-822): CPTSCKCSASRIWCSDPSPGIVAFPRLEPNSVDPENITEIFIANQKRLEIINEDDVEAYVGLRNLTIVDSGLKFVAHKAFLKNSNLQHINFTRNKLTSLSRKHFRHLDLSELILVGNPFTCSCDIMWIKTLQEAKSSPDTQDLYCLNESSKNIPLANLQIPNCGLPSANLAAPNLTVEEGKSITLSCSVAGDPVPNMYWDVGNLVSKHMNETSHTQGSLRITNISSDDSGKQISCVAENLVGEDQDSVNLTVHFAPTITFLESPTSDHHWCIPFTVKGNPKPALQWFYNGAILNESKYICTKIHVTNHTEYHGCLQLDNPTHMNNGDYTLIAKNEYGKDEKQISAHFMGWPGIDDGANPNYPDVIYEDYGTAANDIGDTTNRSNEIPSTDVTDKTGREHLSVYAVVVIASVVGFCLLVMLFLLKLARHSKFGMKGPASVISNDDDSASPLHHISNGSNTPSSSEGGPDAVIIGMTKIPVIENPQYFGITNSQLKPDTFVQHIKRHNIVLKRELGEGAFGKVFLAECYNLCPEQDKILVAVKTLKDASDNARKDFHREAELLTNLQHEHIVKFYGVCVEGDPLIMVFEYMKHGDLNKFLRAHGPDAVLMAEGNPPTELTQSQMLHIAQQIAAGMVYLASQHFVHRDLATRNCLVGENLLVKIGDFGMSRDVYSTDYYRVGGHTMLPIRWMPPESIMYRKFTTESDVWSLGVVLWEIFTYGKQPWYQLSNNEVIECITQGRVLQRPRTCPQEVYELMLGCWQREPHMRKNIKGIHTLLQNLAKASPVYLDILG
Procedure: as §1

NEK1(h) = NEK1(h) (Homo sapiens (Human), UniProt Q96PY6)
Procedure: as §1

PAR-1Bα(h) = PAR-1Bα(h) (Homo sapiens (Human), UniProt Q7KZI7)
Procedure: as §1

PKG1α(h) = PKG1α(h) (Homo sapiens (Human), UniProt Q13976)
Procedure: as §1

PKCη(h) = PKCη(h) (Homo sapiens (Human), UniProt P24723)
PKCη(h), sequence (P24723 whole entry): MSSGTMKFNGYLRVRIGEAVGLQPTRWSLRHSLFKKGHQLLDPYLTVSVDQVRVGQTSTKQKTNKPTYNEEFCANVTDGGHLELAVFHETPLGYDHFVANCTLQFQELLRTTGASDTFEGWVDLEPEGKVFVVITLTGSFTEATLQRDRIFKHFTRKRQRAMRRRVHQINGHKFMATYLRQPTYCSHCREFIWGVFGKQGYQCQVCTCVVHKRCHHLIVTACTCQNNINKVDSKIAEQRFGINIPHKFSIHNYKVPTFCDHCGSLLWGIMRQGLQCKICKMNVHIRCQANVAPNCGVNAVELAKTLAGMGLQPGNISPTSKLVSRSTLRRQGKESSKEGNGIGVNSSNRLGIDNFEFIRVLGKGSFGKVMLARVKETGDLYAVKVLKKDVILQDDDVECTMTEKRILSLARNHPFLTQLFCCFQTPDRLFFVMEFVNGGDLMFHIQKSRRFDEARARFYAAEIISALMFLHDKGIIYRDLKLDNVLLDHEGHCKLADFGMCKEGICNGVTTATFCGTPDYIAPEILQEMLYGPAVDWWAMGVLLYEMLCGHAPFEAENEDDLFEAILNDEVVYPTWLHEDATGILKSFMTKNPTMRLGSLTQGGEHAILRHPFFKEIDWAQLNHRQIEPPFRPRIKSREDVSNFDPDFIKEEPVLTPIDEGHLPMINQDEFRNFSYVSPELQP
Procedure: as §1

B-Raf(V599E)(h) = B-Raf(V599E)(h) (Homo sapiens (Human), UniProt P15056, V600E)
Procedure: as §1

MST4(h) = MST4(h) (Homo sapiens (Human), UniProt Q9P289)
Snk(h) = Snk(h) (Homo sapiens (Human), UniProt Q9NYY3)
Procedure: as §1

MKK4(m) = MKK4(m) (Mus musculus (Mouse), UniProt P47809)
Procedure: as §1

ROCK-II(r) = ROCK-II(r) (Rattus norvegicus (Rat), UniProt Q62868)
Procedure: as §1

PRK1(h) = PRK1(h) (Homo sapiens (Human), UniProt Q16512)
PRK1(h), sequence (Q16512 whole entry): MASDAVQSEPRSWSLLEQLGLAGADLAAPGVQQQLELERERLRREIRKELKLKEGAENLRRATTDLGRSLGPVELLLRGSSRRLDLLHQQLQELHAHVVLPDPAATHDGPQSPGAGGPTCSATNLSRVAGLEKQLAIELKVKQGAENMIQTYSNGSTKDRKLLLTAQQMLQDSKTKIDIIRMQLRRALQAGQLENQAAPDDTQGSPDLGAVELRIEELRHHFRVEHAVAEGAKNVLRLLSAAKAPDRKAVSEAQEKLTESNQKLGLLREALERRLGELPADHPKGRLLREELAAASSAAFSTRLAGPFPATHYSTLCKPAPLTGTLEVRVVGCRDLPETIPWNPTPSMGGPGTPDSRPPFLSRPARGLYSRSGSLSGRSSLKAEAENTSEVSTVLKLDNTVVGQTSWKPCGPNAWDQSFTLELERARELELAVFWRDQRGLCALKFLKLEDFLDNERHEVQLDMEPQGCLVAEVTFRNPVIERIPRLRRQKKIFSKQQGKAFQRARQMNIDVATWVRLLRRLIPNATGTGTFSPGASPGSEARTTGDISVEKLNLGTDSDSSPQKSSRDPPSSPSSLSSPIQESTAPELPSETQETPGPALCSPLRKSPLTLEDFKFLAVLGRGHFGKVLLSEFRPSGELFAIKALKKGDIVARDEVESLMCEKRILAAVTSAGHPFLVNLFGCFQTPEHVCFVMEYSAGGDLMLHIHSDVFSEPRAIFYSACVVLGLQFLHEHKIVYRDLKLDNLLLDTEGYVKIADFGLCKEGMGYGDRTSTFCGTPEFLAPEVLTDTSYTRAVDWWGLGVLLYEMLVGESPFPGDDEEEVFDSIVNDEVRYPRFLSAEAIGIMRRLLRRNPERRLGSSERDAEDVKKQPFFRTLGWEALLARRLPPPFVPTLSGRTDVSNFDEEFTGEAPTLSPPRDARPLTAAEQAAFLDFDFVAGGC
Procedure: as §1

ATM(h) = ATM(h) (Homo sapiens (Human), UniProt Q13315)
Procedure: as §1

PAK3(h) = PAK3(h) (Homo sapiens (Human), UniProt O75914)
Procedure: as §1

## C[C@H](NC(=O)c1cn(C)c2ccc(-c3ccn4nc(NC(=O)C5CC5)nc4c3)cc12)c1cccc(F)c1 [Compound 94, (S)-5-(2-(cyclopropanecarboxamido)-[1,2,4]triazolo[1,5-a]pyridin-7-yl)-N-(1-(3-fluorophenyl)ethyl)-1-methyl-1H-indole-3-carboxamide]
cKit(D816V)(h)
  Inhibition ratio/%: 75%
Aurora-C(h)
  Inhibition ratio/%: 15%
NEK4(h)
  Inhibition ratio/%: 27%
B-Raf(h)
  Inhibition ratio/%: −5%
Lyn(m)
  Inhibition ratio/%: 19%
MSSK1(h)
  Inhibition ratio/%: −12%
CSRC(h)
  Inhibition ratio/%: −17%
Axl(h)
  Inhibition ratio/%: 31%
LKB1(h)
  Inhibition ratio/%: 55%
mTOR(h)
  Inhibition ratio/%: −11%
DRAK2(h)
  Inhibition ratio/%: 37%
Plk1(h)
  Inhibition ratio/%: 26%
JNK2α2(h)
  Inhibition ratio/%: 40%
CaMKIIα(h)
  Inhibition ratio/%: 76%
Arg(h)
  Inhibition ratio/%: 42%
PDHK2(h)
  Inhibition ratio/%: 32%
CaMKIβ(h)
  Inhibition ratio/%: 31%
BrSK1(h)
  Inhibition ratio/%: 31%
NUAK2(h)
  Inhibition ratio/%: 30%
Aurora-B(h)
  Inhibition ratio/%: 25%
CDK3/cyclinE(h)
  Inhibition ratio/%: 65%
TrkB(h)
  Inhibition ratio/%: 0%
NEK1(h)
  Inhibition ratio/%: 50%
PAR-1Bα(h)
  Inhibition ratio/%: 33%
PKG1α(h)
  Inhibition ratio/%: 12%
PKCη(h)
  Inhibition ratio/%: 27%
B-Raf(V599E)(h)
  Inhibition ratio/%: −10%
MST4(h)
  Inhibition ratio/%: 12%
Snk(h)
  Inhibition ratio/%: 1%
MKK4(m)
  Inhibition ratio/%: 27%
ROCK-II(r)
  Inhibition ratio/%: 52%
PRK1(h)
  Inhibition ratio/%: −12%
ATM(h)
  Inhibition ratio/%: −15%
PAK3(h)
  Inhibition ratio/%: −19%

## C[C@H](NC(=O)c1c[nH]c2ccc(-c3ccc4nc(NC(=O)C5CC5)sc4c3)cc12)c1cccc(F)c1 [Compound 34, (S)-5-(2-(cyclopropanecarboxamido)benzo[d]thiazol-6-yl)-N-(1-(3-fluorophenyl)ethyl)-1H-indole-3-carboxamide]
cKit(D816V)(h)
  Inhibition ratio: 0%
Aurora-C(h)
  Inhibition ratio: 26%
NEK4(h)
  Inhibition ratio: 30%
B-Raf(h)
  Inhibition ratio: 20%
Lyn(m)
  Inhibition ratio: 72%
MSSK1(h)
  Inhibition ratio: 24%
CSRC(h)
  Inhibition ratio: 43%
Axl(h)
  Inhibition ratio: 86%
LKB1(h)
  Inhibition ratio: 6%
mTOR(h)
  Inhibition ratio: −7%
DRAK2(h)
  Inhibition ratio: 18%
Plk1(h)
  Inhibition ratio: 8%
JNK2α2(h)
  Inhibition ratio: 25%
CaMKIIα(h)
  Inhibition ratio: 5%
Arg(h)
  Inhibition ratio: 89%
PDHK2(h)
  Inhibition ratio: 3%
CaMKIβ(h)
  Inhibition ratio: 11%
BrSK1(h)
  Inhibition ratio: −28%
NUAK2(h)
  Inhibition ratio: 9%
Aurora-B(h)
  Inhibition ratio: 21%
CDK3/cyclinE(h)
  Inhibition ratio: −13%
TrkB(h)
  Inhibition ratio: 100%
NEK1(h)
  Inhibition ratio: 18%
PAR-1Bα(h)
  Inhibition ratio: 2%
PKG1α(h)
  Inhibition ratio: −12%
PKCη(h)
  Inhibition ratio: −3%
B-Raf(V599E)(h)
  Inhibition ratio: 14%
MST4(h)
  Inhibition ratio: 11%
Snk(h)
  Inhibition ratio: 0%
MKK4(m)
  Inhibition ratio: 9%
ROCK-II(r)
  Inhibition ratio: 12%
PRK1(h)
  Inhibition ratio: 26%
ATM(h)
  Inhibition ratio: 3%
PAK3(h)
  Inhibition ratio: −1%
